Source: patent US20090131465A1, “Synthesis and crystalline forms of melanocortin-4 receptor agonist” (priority 2007, published 2009)

Key:
[1] = aqueous solubility of the crystalline form (statement only, no method); format: physicochemical; conditions: qualitative statement, no conditions given
[2] = chemical and physical stability of the crystalline form (statement only, no method); format: physicochemical; conditions: qualitative statement, no conditions given

Question: With CC(=O)NC(C)(C)[C@@H]1CC2(CCN(C(=O)[C@@H]3CN(C(C)(C)C)C[C@H]3c3ccc(F)cc3F)CC2)c2cc(Cl)c(C)cc21.Cl [N-[1-((3R)-1′-1′-{[(3S,4R)-1-tert-butyl-4-(2,4-difluorophenyl)pyrrolidine-3-yl]carbonyl}-6-chloro-5-methyl-2,3-dihydrospiro[indene-1,4′-piperidine]-3-yl)-1-methylethyl]acetamide] as the molecule, how does the aqueous solubility [1] read?
Answer: good

Question: What about the “chemical and physical stability” value [2] of the same molecule?
Answer: good
